Source: patent US20240091242A1, “LIPIDS THAT REDUCE LUNG DAMAGE, IMPROVE PULMONARY FUNCTION AND DECREASE PRO-INFLAMMATORY CYTOKINES” (Signpath Pharma, Inc., priority 2021, published 2024)

System: pro-inflammatory cytokines in the plasma
Assay: Multiplex analysis of cytokine levels in plasma, murine LPS ARDS model
Assay type: in vivo, mouse
Settings: for IL3 level in plasma / IL7 level in plasma / MCP-1 level in plasma / MIP-1alpha level in plasma / MIP-2 level in plasma: in pg/mL (unit assumed)
From the text: C57B16/N mice were obtained from Charles River Laboratories (Montreal, Quebec). Male mice, 20-25 g of body weight, were used throughout the studies. Animals were housed in specific pathogen[…]free conditions, and all experiments were approved by Institutional Animal Care and Use Committee (IPST_SL20200402-1). Animal studies are reported in compliance with […] guidelines.
All delivered mice were kept for one week as an acclimatization period prior to performing any experiments. Animals were housed in a maximum of two mice per cage under a 12[…]h light/12[…]h dark cycle at a temperature of ˜20-22° C. and 40-60% humidity. Food and water were available ad libitum. Each cage of mice was blindly assigned for different treatments or maintained as a control group according to the experimental design. The individual who carried out the experiments was not blinded as to treatment, but data analysis and experiments were otherwise blinded to avoid any bias.
In the ARDS group, mice received Escherichia coli O111:B4 lipopolysaccharide (50 μg in 0.05 mL saline, i.t.), while, in the control group, the animals received an instillation of saline (0.05 mL, i.t.). For intratracheal instillation, mice were slightly anesthetized with isoflurane.
The lipid SPPCT-800 was dissolved in water (low dose—2 mg/ml; high dose—20 mg/ml). For the 24-hour study, two treatment approaches were used. Mice received a single dose of SPPCT-800 (200 mg/kg, per gavage) as prevention (30 minutes before the LPS instillation), or as a single dose of either 20 mg/kg or 200 mg/kg as therapy (3-hour after the LPS instillation). For the 72-hour study, mice received a total of 8 treatments of SPPCT-800 (200 mg/kg) starting at 3-hour after the LPS instillation. Disease progression in mice was assessed by the evaluation of pulmonary functions, blood oxygen saturation, and body weight change. On the terminal day of each study (24 hours or 72 hours), measurement of cytokine levels in the plasma and BALF, and histopathology evaluations were done.
Multiplex analysis of mediators. The inventors quantified 31 different mediators in the BALF and plasma by using a Discovery Assay® (Mouse Cytokine and Chemokine Array 31-Plex (MD31), Eve Technologies Corp, Calgary, AB, Canada). The multiplex assay was performed at Eve Technologies using the Bio-Plex™ 200 system (Bio-Rad Laboratories, Inc., Hercules, CA, USA) and a Milliplex Mouse Cytokine/Chemokine kit (Millipore, St. Charles, MO, USA) according to Eve Tech protocol. The 31-plex consisted of Eotaxin, G-CSF, GM-CSF, IFN-γ, IL-1α, IL-1β, IL-2, IL-3, IL-4, IL-5, IL-6, IL-7, IL-9, IL-10, IL-12 (p40), IL-12 (p70), IL-13, IL-15, IL-17, IP-10, KC, LIF, MCP-1, M-CSF, MIG, MIP-1α, MIP-1β, MIP-2,RANTES, TNFα, and VEGF. The assay sensitivities of these markers range from 0.1 pg/mL to 33.3 pg/mL. Individual analytes' values and other assay details are available on Eve Technologies' website and in the Milliplex protocol.
Statistical Analysis. Results are expressed as means±SEM. Comparisons were made on normally distributed data using ANOVA, followed by a Fisher post hoc test to assess the difference between LPS+vehicle group with GraphPad Prism Software version 8.0 (San Diego, CA, USA). Differences were considered statistically significant when P values were less than 0.05. (* Shown difference versus Sham animals and # shown difference versus LPS+Vehicle group. * Means P<0.05, ** P<0.01, *** P<0.001 while # means P<0.05, ##P<0.01 and ###P<0.001).

[1] = 24-hours, Pre: SPP4040 30 minutes before LPS
[2] = 24-hours, Thera: SPP4040 3 hours after LPS
[3] = 72-hours, Thera: eight SPP4040 injections over 72 hours after LPS

Structure (SMILES): CCCCCCCCCCCCCC(=O)OCC(COP(=O)([O-])OCC(COC(=O)CCC)OC(=O)CCC)OC(=O)CCCCCCCCCCCCC.CCCCCCCCCCCCCC(=O)OCC(COP(=O)([O-])OCC(COC(=O)CCC)OC(=O)CCC)OC(=O)CCCCCCCCCCCCC.[Mg+2] (centres unmarked) [SPPCT-800]
- Eotaxin level in plasma [1]: 719 ± 138
- G-CSF level in plasma [1]: 21035 ± 2241
- GM-CSF level in plasma [1]: 12 ± 2
- IFN gamma level in plasma [1]: 1 ± 1
- IL1-alpha level in plasma [1]: 3196 ± 3107
- IL1-beta level in plasma [1]: 3.8 ± 0.7
- IL2 level in plasma [1]: 11 ± 3
- IL4 level in plasma [1]: 0.2 ± 0.1
- IL5 level in plasma [1]: 8 ± 2
- IL6 level in plasma [1]: 176 ± 29
- IL9 level in plasma [1]: 2 ± 1
- IL10 level in plasma [1]: 57 ± 8
- IL12 (p40) level in plasma [1]: 12 ± 1
- IL12 (p70) level in plasma [1]: 17 ± 7
- IL13 level in plasma [1]: 22 ± 3
- IL15 level in plasma [1]: 63 ± 15
- IL17 level in plasma [1]: 2.6 ± 0.3
- IP-10 level in plasma [1]: 790 ± 206
- KC level in plasma [1]: 1271 ± 224
- LIF level in plasma [1]: 1.3 ± 0.2
- LIX level in plasma [1]: 470 ± 145
- M-CSF level in plasma [1]: 12 ± 1
- MIG level in plasma [1]: 2486 ± 203
- MIP-1beta level in plasma [1]: 109 ± 8
- RANTES level in plasma [1]: 200 ± 28
- TNF-alpha level in plasma [1]: 14 ± 1
- VEGF level in plasma [1]: 0.5 ± 0.1
- IL3 level in plasma [1]: 0.9 ± 0.1
- IL7 level in plasma [1]: 8 ± 2
- MCP-1 level in plasma [1]: 86 ± 20
- MIP-1alpha level in plasma [1]: 88 ± 4
- MIP-2 level in plasma [1]: 138 ± 7
- Eotaxin level in plasma [2]: 855 ± 228
- G-CSF level in plasma [2]: 22915 ± 410
- GM-CSF level in plasma [2]: 11 ± 1
- IFN gamma level in plasma [2]: 1 ± 1
- IL1-alpha level in plasma [2]: 159 ± 39
- IL1-beta level in plasma [2]: 3.6 ± 0.6
- IL2 level in plasma [2]: 16 ± 1
- IL4 level in plasma [2]: 0.4 ± 0.2
- IL5 level in plasma [2]: 11 ± 2
- IL6 level in plasma [2]: 155 ± 30
- IL9 level in plasma [2]: 6 ± 2
- IL10 level in plasma [2]: 90 ± 32
- IL12 (p40) level in plasma [2]: 12 ± 2
- IL12 (p70) level in plasma [2]: 40 ± 19
- IL13 level in plasma [2]: 22 ± 2
- IL15 level in plasma [2]: 49 ± 16
- IL17 level in plasma [2]: 2.3 ± 0.6
- IP-10 level in plasma [2]: 605 ± 102
- KC level in plasma [2]: 764 ± 274
- LIF level in plasma [2]: 1.5 ± 0.2
- LIX level in plasma [2]: 547 ± 203
- M-CSF level in plasma [2]: 16 ± 4
- MIG level in plasma [2]: 2593 ± 317
- MIP-1beta level in plasma [2]: 120 ± 29
- RANTES level in plasma [2]: 270 ± 70
- TNF-alpha level in plasma [2]: 14 ± 1
- VEGF level in plasma [2]: 0.6 ± 0.1
- IL3 level in plasma [2]: 0.5 ± 0.7
- IL7 level in plasma [2]: 4 ± 1
- MCP-1 level in plasma [2]: 157 ± 62
- MIP-1alpha level in plasma [2]: 92 ± 7
- MIP-2 level in plasma [2]: 128 ± 5
- TNF-α levels in the plasma (in words) (72-hour study, P<0.05): markedly reduced
- Eotaxin level in plasma [3]: 464 ± 252
- G-CSF level in plasma [3]: 1116 ± 502
- GM-CSF level in plasma [3]: 6 ± 2
- IFN gamma level in plasma [3]: 6 ± 2
- IL1-alpha level in plasma [3]: 63 ± 27
- IL1-beta level in plasma [3]: 6.8 ± 3.8
- IL2 level in plasma [3]: 34 ± 10
- IL4 level in plasma [3]: 0.6 ± 0.4
- IL5 level in plasma [3]: 2 ± 1
- IL6 level in plasma [3]: 76 ± 31
- IL9 level in plasma [3]: 3 ± 1
- IL10 level in plasma [3]: 5 ± 1
- IL12 (p40) level in plasma [3]: 8 ± 1
- IL12 (p70) level in plasma [3]: 11 ± 5
- IL13 level in plasma [3]: 23 ± 3
- IL15 level in plasma [3]: 40 ± 22
- IL17 level in plasma [3]: 4 ± 3
- IP-10 level in plasma [3]: 150 ± 34
- KC level in plasma [3]: 502 ± 150
- LIF level in plasma [3]: 0.5 ± 0.1
- LIX level in plasma [3]: 574 ± 445
- M-CSF level in plasma [3]: 5 ± 2
- MIG level in plasma [3]: 447 ± 137
- MIP-1beta level in plasma [3]: 55 ± 13
- RANTES level in plasma [3]: 19 ± 2
- TNF-alpha level in plasma [3]: 7 ± 2
- VEGF level in plasma [3]: 7.4 ± 2.4
- IL3 level in plasma [3]: 0.1 ± 0.1
- IL7 level in plasma [3]: 3 ± 1
- MCP-1 level in plasma [3]: 34 ± 6
- MIP-1alpha level in plasma [3]: 133 ± 11
- MIP-2 level in plasma [3]: 56 ± 17
- IL-1β, IL-2, IL-3, IL-4, IL-5, IL-6, IL-7, IL-9, IL-10, IL-12 (p40), IL-12 (p70), IL-13, IL-15 and IL-17 in plasma (in words) (at 24 hours): markedly reduced
- MCP-1 in the plasma (in words) (at 24 hours and at 72 hours): inhibited
- MIP-1α and MIP 1-β in the plasma (in words) (at 24 hours and at 72 hours): Suppressive effects
- GM-CSF in the plasma (in words) (at 24 hours, 200 mg/kg preventive, 20 mg/kg therapeutic and 200 mg/kg therapeutic, P<0.001): highly significant depressions
- TNF-α in the plasma (in words) (at 24 hours, all three single dose groups, P<0.001): markedly reduced
- IFN-γ levels in the plasma (in words) (at 24 hours, all three single-dose groups, P<0.01): profoundly depressed
- levels of plasma IL-1α (in words) (at 24 hours, any of the mouse groups): did not reduce
- IFN-γ levels in the plasma (in words) (at 72 hours): Large reductions
- GM-CSF in the plasma (in words) (at 72 hours, P<0.01): significant decreases
- RANTES in the plasma (in words) (at both 24 hours and 72 hours): suppressed
- MIG, IP10 and Eotaxin (in words) (marked suppression in the plasma or the BALF, but not in both): mixed
- G-CSF, VEGF, KC, LIF, LIX and M-CSF in the plasma (in words) (mouse, in vivo): suppressed
- number of the 15 interleukins tested in which major reductions were consistently noted (plasma and BALF): 14
